From US12679843B2, “Pyrrolopyrimidine amines as complement inhibitors” (BioCryst Pharmaceuticals, Inc., priority 2020, dated 2026)

Biological target: Factor D (Homo sapiens, UniProt P00746)
Assay: Factor D esterolytic assay (Z-Lys-SBzl thioester substrate, DTNB, 405 nm)
Assay type: biochemical
Conditions: substrate Z-Lys-SBzl 1.29 mM, 100 mM HEPES, 500 mM NaCl, pH 7.5, 10% DMSO, tested a minimum of three times
Method in brief: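 Human Factor D hydrolysis of Z-Lys-SBzl (1.29 mM) monitored at 405 nm via DTNB thiol detection for 600 s, 690 nm background subtracted. Buffer 100 mM HEPES, 500 mM NaCl, pH 7.5, 10% DMSO; substrate added immediately or after room-temperature preincubation. IC50 from percent inhibition of rate, at least three tests.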

Factor D, sequence (P00746 26-253): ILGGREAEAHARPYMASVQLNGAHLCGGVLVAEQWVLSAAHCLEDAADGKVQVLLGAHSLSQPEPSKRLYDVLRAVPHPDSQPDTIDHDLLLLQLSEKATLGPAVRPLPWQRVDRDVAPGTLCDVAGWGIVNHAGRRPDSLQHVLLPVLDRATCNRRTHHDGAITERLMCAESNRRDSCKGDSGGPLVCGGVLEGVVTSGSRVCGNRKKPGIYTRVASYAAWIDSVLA

`Cc1cc(C(=O)O)cc2c3c(N)ncnc3n(CC(=O)N3[C@@H]4C[C@@H]4C[C@H]3C(=O)Nc3cccc(Br)n3)c12` [Compound 218a, 4-amino-9-(2-((1R,3S,5R)-3-((6-bromopyridin-2-yl)carbamoyl)-2-azabicyclo[3.1.0]hexan-2-yl)-2-oxoethyl)-8-methyl-9H-pyrimido[4,5-b]indole-6-carboxylic acid] and `Cc1cc(C(=O)O)cc2c3c(N)ncnc3n(CC(=O)N3[C@H](C(=O)Nc4cccc(Br)n4)C[C@@]4(C)C[C@@H]34)c12` [Compound 219a, 4-amino-9-(2-((1R,3S,5R)-3-((6-bromopyridin-2-yl)carbamoyl)-5-methyl-2-azabicyclo[3.1.0]hexan-2-yl)-2-oxoethyl)-8-methyl-9H-pyrimido[4,5-b]indole-6-carboxylic acid] cannot be ordered by IC50: less than 100 nM for the first, less than 100 nM for the second.

Compared with `Nc1ncnc2c1c1cccc(C(=O)O)c1n2CC(=O)N1[C@@H]2C[C@@H]2C[C@H]1C(=O)Nc1cccc(Br)n1` [Compound 220a, 4-amino-9-(2-((1R,3S,5R)-3-((6-bromopyridin-2-yl)carbamoyl)-2-azabicyclo[3.1.0]hexan-2-yl)-2-oxoethyl)-9H-pyrimido[4,5-b]indole-8-carboxylic acid], `Nc1ncnc2c1c1c(C(=O)O)cccc1n2CC(=O)N1[C@@H]2C[C@@H]2C[C@H]1C(=O)Nc1cccc(Br)n1` [Compound 224b, 4-amino-9-(2-((1R,3S,5R)-3-((6-bromopyridin-2-yl)carbamoyl)-2-azabicyclo[3.1.0]hexan-2-yl)-2-oxoethyl)-9H-pyrimido[4,5-b]indole-5-carboxylic acid] is higher in IC50: 100 to 1000 nM for the first, greater than 1000 nM for the second. The first is the more potent here.

Going from `COC(=O)c1cccc2c1c1c(N)ncnc1n2CC(=O)N1[C@H](C(=O)Nc2cccc(Br)n2)C[C@@]2(C)C[C@@H]12` [Compound 221c, methyl 4-amino-9-(2-((1R,3S,5R)-3-((6-bromopyridin-2-yl)carbamoyl)-5-methyl-2-azabicyclo[3.1.0]hexan-2-yl)-2-oxoethyl)-9H-pyrimido[4,5-b]indole-5-carboxylate] to `C[C@@]12C[C@@H](C(=O)Nc3cccc(Br)n3)N(C(=O)Cn3c4cccc(C(=O)O)c4c4c(N)ncnc43)[C@@H]1C2` [Compound 222a, 4-amino-9-(2-((1R,3S,5R)-3-((6-bromopyridin-2-yl)carbamoyl)-5-methyl-2-azabicyclo[3.1.0]hexan-2-yl)-2-oxoethyl)-9H-pyrimido[4,5-b]indole-5-carboxylic acid], the IC50 rises from less than 100 nM to greater than 1000 nM.

`COC(=O)c1cccc2c3c(N)ncnc3n(CC(=O)N3[C@H](C(=O)Nc4cccc(Br)n4)C[C@@]4(C)C[C@@H]34)c12` [Compound 223a, methyl 4-amino-9-(2-((1R,3S,5R)-3-((6-bromopyridin-2-yl)carbamoyl)-5-methyl-2-azabicyclo[3.1.0]hexan-2-yl)-2-oxoethyl)-9H-pyrimido[4,5-b]indole-8-carboxylate] and `C[C@@]12C[C@@H](C(=O)Nc3cccc(Br)n3)N(C(=O)Cn3c4ncnc(N)c4c4cccc(C(=O)O)c43)[C@@H]1C2` [Compound 232a, 4-amino-9-(2-((1R,3S,5R)-3-((6-bromopyridin-2-yl)carbamoyl)-5-methyl-2-azabicyclo[3.1.0]hexan-2-yl)-2-oxoethyl)-9H-pyrimido[4,5-b]indole-8-carboxylic acid] cannot be ordered by IC50: less than 100 nM for the first, less than 100 nM for the second.

`COC(=O)Nc1ccc2c(c1)c1c(N)ncnc1n2CC(=O)N1[C@@H]2C[C@@H]2C[C@H]1C(=O)Nc1cccc(Br)n1` [Compound 225e, methyl (4-amino-9-(2-((1R,3S,5R)-3-((6-bromopyridin-2-yl)carbamoyl)-2-azabicyclo[3.1.0]hexan-2-yl)-2-oxoethyl)-9H-pyrimido[4,5-b]indol-6-yl)carbamate] and `Nc1ncnc2c1c1cc(-c3ccncc3)ccc1n2CC(=O)N1[C@@H]2C[C@@H]2C[C@H]1C(=O)Nc1cccc(Br)n1` [Compound 226c, (1R,3S,5R)-2-(2-(4-amino-6-(pyridin-4-yl)-9H-pyrimido[4,5-b]indol-9-yl)acetyl)-N-(6-bromopyridin-2-yl)-2-azabicyclo[3.1.0]hexane-3-carboxamide] cannot be ordered by IC50: less than 100 nM for the first, less than 100 nM for the second.

`Nc1ncnc2c1c1ccc(-c3ccccc3)cc1n2CC(=O)N1[C@@H]2C[C@@H]2C[C@H]1C(=O)Nc1cccc(Br)n1` [Compound 227c, (1R,3S,5R)-2-(2-(4-amino-7-phenyl-9H-pyrimido[4,5-b]indol-9-yl)acetyl)-N-(6-bromopyridin-2-yl)-2-azabicyclo[3.1.0]hexane-3-carboxamide] and `C[C@@]12C[C@@H](C(=O)Nc3cccc(Br)n3)N(C(=O)Cn3c4cc(-c5ccccc5)ccc4c4c(N)ncnc43)[C@@H]1C2` [Compound 228a, (1R,3S,5R)-2-(2-(4-amino-7-phenyl-9H-pyrimido[4,5-b]indol-9-yl)acetyl)-N-(6-bromopyridin-2-yl)-5-methyl-2-azabicyclo[3.1.0]hexane-3-carboxamide] cannot be ordered by IC50: less than 100 nM for the first, less than 100 nM for the second.

`Cc1cc(-c2ccccc2)cc2c3c(N)ncnc3n(CC(=O)N3[C@@H]4C[C@@H]4C[C@H]3C(=O)Nc3cccc(Br)n3)c12` [Compound 229c, (1R,3S,5R)-2-(2-(4-amino-8-methyl-6-phenyl-9H-pyrimido[4,5-b]indol-9-yl)acetyl)-N-(6-bromopyridin-2-yl)-2-azabicyclo[3.1.0]hexane-3-carboxamide] and `Cc1cc(-c2ccccc2)cc2c3c(N)ncnc3n(CC(=O)N3[C@H](C(=O)Nc4cccc(Br)n4)C[C@@]4(C)C[C@@H]34)c12` [Compound 230a, (1R,3S,5R)-2-(2-(4-amino-8-methyl-6-phenyl-9H-pyrimido[4,5-b]indol-9-yl)acetyl)-N-(6-bromopyridin-2-yl)-5-methyl-2-azabicyclo[3.1.0]hexane-3-carboxamide] cannot be ordered by IC50: less than 100 nM for the first, less than 100 nM for the second.

`C[C@@]12C[C@@H](C(=O)Nc3cccc(Br)n3)N(C(=O)Cn3c4ccc(C(F)(F)F)nc4c4c(N)ncnc43)[C@@H]1C2` [Compound 231g, (1R,3S,5R)-2-(2-(4-amino-6-(trifluoromethyl)-9H-pyrido[2′,3′:4,5]pyrrolo[2,3-d]pyrimidin-9-yl)acetyl)-N-(6-bromopyridin-2-yl)-5-methyl-2-azabicyclo[3.1.0]hexane-3-carboxamide] and `Nc1ncnc2c1c1nc(C(F)(F)F)ccc1n2CC(=O)N1[C@@H]2C[C@@H]2C[C@H]1C(=O)Nc1cccc(Br)n1` [Compound 234a, (1R,3S,5R)-2-(2-(4-amino-6-(trifluoromethyl)-9H-pyrido[2′,3′:4,5]pyrrolo[2,3-d]pyrimidin-9-yl)acetyl)-N-(6-bromopyridin-2-yl)-2-azabicyclo[3.1.0]hexane-3-carboxamide] cannot be ordered by IC50: less than 100 nM for the first, less than 100 nM for the second.

Going from `Nc1ncnc2c1cc1n2C(C(=O)N2[C@@H](C(=O)Nc3cccc(Br)n3)C[C@@H]3C[C@@H]32)Oc2ccccc2-1` (stereo partly drawn) [Compound 233h, (1S,3R,5S)-2-(11-amino-6H-benzo[e]pyrimido[5′,4′:4,5]pyrrolo[1,2-c][,3]oxazine-6-carbonyl)-N-(6-bromopyridin-2-yl)-2-azabicyclo[3.1.0]hexane-3-carboxamide] to `O=C1NCc2cnc3c(ccn3CC(=O)N3C[C@H](F)C[C@H]3C(=O)NCc3cccc(Cl)c3F)c2N1` [Compound 235a, (2S,4R)—N-(3-chloro-2-fluorobenzyl)-4-fluoro-1-(2-(2-oxo-3,4-dihydro-1H-pyrrolo[3′,2′:5,6]pyrido[4,3-d]pyrimidin-7 (2H)-yl)acetyl)pyrrolidine-2-carboxamide], the IC50 rises from less than 100 nM to greater than 1000 nM.
